Test system: dyslipidemic patients with renal impairment
Experiment: Example 3 phase III 52-week trial: lipid levels
Type: in vivo, human
Conditions: for HDL-C % Change from baseline at Week 52 (LOCF) / HDL-C Week 52 (LOCF) / LDL-C % Change from baseline at Week 52 (LOCF) / LDL-C Week 52 (LOCF) / RemL-C % Change from baseline at Week 52 (LOCF) / RemL-C Week 52 (LOCF) / TG % Change from baseline at Week 52 (LOCF) / TG Week 52 (LOCF) / TG/HDL-C % Change from baseline at Week 52 (LOCF) / TG/HDL-C Week 52 (LOCF) / apoA1 % Change from baseline at Week 52 (LOCF) / apoA1 Week 52 (LOCF) / non-HDL-C % Change from baseline at Week 52 (LOCF) / non-HDL-C Week 52 (LOCF): 0.2 (0.4) mg/day
Description: This was a multicenter, single-arm, open-label, phase III trial. The inclusion criteria were as follows: (1) patients with dyslipidemia aged >20 years at the time of informed consent; (2) men and postmenopausal women; (3) fasting serum TG≥1.70 mmol/L (150 mg/dL) at two consecutive measurements during screening; and (4) patients who followed dietary and physical exercise guidance for >12 weeks before enrollment.
The major exclusion criteria were as follows: (1) patients with fasting serum TG≥5.65 mmol/L (500 mg/dL) during screening; (2) patients with poorly controlled diabetes mellitus (hemoglobin A1c [HbA1c]≥10.5%); (3) patients with concurrent poorly controlled thyroid disease; (4) men with serum creatinine ≥2.5 mg/dL and women with serum creatinine ≥2.0 mg/dL during screening who were already on statin therapy; (5) patients with eGFR<45 mL/min/1.73 m^2 during screening who were already on statin therapy; (6) patients with CK>5ULN (270 IU/L for men, 150 IU/L for women) during screening who were already on statin therapy; (7) patients with serious liver disease (cirrhosis Child-Pugh Class B or higher); (8) patients with gallstones or serious biliary tract disease; (9) patients who had suffered an acute myocardial infarction or stroke within three months before informed consent; and (10) patients with New York Heart Association class III or IV heart failure.
During the screening period (8 weeks prior to treatment initiation), tests were performed twice to determine patient eligibility. Thereafter, eligible patients orally received pemafibrate 0.2 mg/day (twice daily) for 52 weeks. From week 12 of the treatment period onwards, the investigators were instructed that the dose could be increased from 0.2 mg/day to 0.4 mg/day (twice daily) if there was an inadequate response to the initial dose based on fasting serum TG levels ≥1.70 mmol/L (150 mg/dL). Fasting blood and urine samples were collected at each visit. Blood and urine sample in patients with hemodialysis were collected just before dialysis. LDL-C levels were measured using the direct method. Lipoprotein fractions were measured by HPLC at baseline and weeks 12 and 40.
The primary efficacy endpoint was the percent change in fasting serum TG from baseline to the last evaluation point. The primary safety endpoints were the incidence of an AE or ADR occurring after drug administration during the study. Secondary efficacy endpoints included percent changes in lipid variables and changes in inflammation variables at week 52 [using the last-observation-carried-forward (LOCF)]. Secondary safety endpoints included changes in the levels of aspartate aminotransferase (AST), ALT, -GT, ALP, serum creatinine, eGFR, and CK at week 52. Each baseline value was defined as (1) the mean of the corresponding values in the first and second tests at the screening examination and at week 0 of the treatment period for fasting serum TG, HDL-C, total cholesterol (TC), LDL-C, and non-HDL-C; and (2) the value at week 0 of the treatment period for the other secondary variables.
The target sample size was set to 170 patients based on the number required to evaluate safety according to the International Conference on Harmonisation (ICH)-E1 guideline “Extent of population exposure to assess clinical safety for drugs intended for long-term treatment of non-life-threatening conditions”. For the primary efficacy endpoint, one-sample t-tests were performed.
The numbers of patients with AEs and ADRs and the incidences of AEs and ADRs were calculated in the analysis of primary safety endpoints. For the secondary efficacy endpoints, one-sample t-tests or Wilcoxon signed-rank tests [for high-sensitivity C-reactive protein (hsCRP) and IL-1] were performed. The secondary safety endpoints were analyzed with Wilcoxon signed-rank tests. A two-sided significance level of 0.05 was used. SAS v. 9.3 (SAS Institute Inc., Cary, N.C., USA) was used for these analyses. […]

CC[C@@H](Oc1cccc(CN(CCCOc2ccc(OC)cc2)c2nc3ccccc3o2)c1)C(=O)O [Pemafibrate, (2R)-2-[3-({1,3-benzoxazol-2-yl[3-(4-methoxyphenoxy)propyl]amino}methyl)phenoxy]butanoic acid]
HDL-C % Change from baseline at Week 52 (LOCF) (All Participants): 13.1%
HDL-C Week 52 (LOCF) (All Participants): 1.33 mmol/L
LDL-C % Change from baseline at Week 52 (LOCF) (All Participants): 2.2%
LDL-C Week 52 (LOCF) (All Participants): 3.02 mmol/L
RemL-C % Change from baseline at Week 52 (LOCF) (All Participants): −57.2%
RemL-C Week 52 (LOCF) (All Participants): 0.18 mmol/L
TG % Change from baseline at Week 52 (LOCF) (All Participants): −45.8%
TG Week 52 (LOCF) (All Participants): 1.48 mmol/L
TG/HDL-C % Change from baseline at Week 52 (LOCF) (All Participants): −49.7%
TG/HDL-C Week 52 (LOCF) (All Participants): 2.27 (mmol/L)/(mmol/L)
apoA1 % Change from baseline at Week 52 (LOCF) (All Participants): 5.0%
apoA1 Week 52 (LOCF) (All Participants): 137.6 mg/dL
non-HDL-C % Change from baseline at Week 52 (LOCF) (All Participants): −8.7%
non-HDL-C Week 52 (LOCF) (All Participants): 3.63 mmol/L
HDL-C % Change from baseline at Week 52 (LOCF) (eGFR G1 (≥90)): 3.6%
HDL-C Week 52 (LOCF) (eGFR G1 (≥90)): 1.29 mmol/L
LDL-C % Change from baseline at Week 52 (LOCF) (eGFR G1 (≥90)): 2.7%
LDL-C Week 52 (LOCF) (eGFR G1 (≥90)): 3.12 mmol/L
RemL-C % Change from baseline at Week 52 (LOCF) (eGFR G1 (≥90)): −59.9%
RemL-C Week 52 (LOCF) (eGFR G1 (≥90)): 0.21 mmol/L
TG % Change from baseline at Week 52 (LOCF) (eGFR G1 (≥90)): −41.4%
TG Week 52 (LOCF) (eGFR G1 (≥90)): 1.71 mmol/L
TG/HDL-C % Change from baseline at Week 52 (LOCF) (eGFR G1 (≥90)): −40.5%
TG/HDL-C Week 52 (LOCF) (eGFR G1 (≥90)): 1.58 (mmol/L)/(mmol/L)
apoA1 % Change from baseline at Week 52 (LOCF) (eGFR G1 (≥90)): 0.0%
apoA1 Week 52 (LOCF) (eGFR G1 (≥90)): 133.8 mg/dL
non-HDL-C % Change from baseline at Week 52 (LOCF) (eGFR G1 (≥90)): −8.3%
non-HDL-C Week 52 (LOCF) (eGFR G1 (≥90)): 3.77 mmol/L
HDL-C % Change from baseline at Week 52 (LOCF) (eGFR G2 (≥60 and <90)): 11.9%
HDL-C Week 52 (LOCF) (eGFR G2 (≥60 and <90)): 1.34 mmol/L
LDL-C % Change from baseline at Week 52 (LOCF) (eGFR G2 (≥60 and <90)): 2.1%
LDL-C Week 52 (LOCF) (eGFR G2 (≥60 and <90)): 3.03 mmol/L
RemL-C % Change from baseline at Week 52 (LOCF) (eGFR G2 (≥60 and <90)): −56.0%
RemL-C Week 52 (LOCF) (eGFR G2 (≥60 and <90)): 0.18 mmol/L
TG % Change from baseline at Week 52 (LOCF) (eGFR G2 (≥60 and <90)): −45.8%
TG Week 52 (LOCF) (eGFR G2 (≥60 and <90)): 1.47 mmol/L
TG/HDL-C % Change from baseline at Week 52 (LOCF) (eGFR G2 (≥60 and <90)): −48.9%
TG/HDL-C Week 52 (LOCF) (eGFR G2 (≥60 and <90)): 1.24 (mmol/L)/(mmol/L)
apoA1 % Change from baseline at Week 52 (LOCF) (eGFR G2 (≥60 and <90)): 4.1%
apoA1 Week 52 (LOCF) (eGFR G2 (≥60 and <90)): 137.2 mg/dL
non-HDL-C % Change from baseline at Week 52 (LOCF) (eGFR G2 (≥60 and <90)): −8.4%
non-HDL-C Week 52 (LOCF) (eGFR G2 (≥60 and <90)): 3.64 mmol/L
HDL-C % Change from baseline at Week 52 (LOCF) (eGFR G3a-G3b (≥30 and <60)): 17.0%
HDL-C Week 52 (LOCF) (eGFR G3a-G3b (≥30 and <60)): 1.38 mmol/L
LDL-C % Change from baseline at Week 52 (LOCF) (eGFR G3a-G3b (≥30 and <60)): 5.1%
LDL-C Week 52 (LOCF) (eGFR G3a-G3b (≥30 and <60)): 2.97 mmol/L
RemL-C % Change from baseline at Week 52 (LOCF) (eGFR G3a-G3b (≥30 and <60)): −59.3%
RemL-C Week 52 (LOCF) (eGFR G3a-G3b (≥30 and <60)): 0.17 mmol/L
TG % Change from baseline at Week 52 (LOCF) (eGFR G3a-G3b (≥30 and <60)): −51.1%
TG Week 52 (LOCF) (eGFR G3a-G3b (≥30 and <60)): 1.36 mmol/L
TG/HDL-C % Change from baseline at Week 52 (LOCF) (eGFR G3a-G3b (≥30 and <60)): −57.0%
TG/HDL-C Week 52 (LOCF) (eGFR G3a-G3b (≥30 and <60)): 1.09 (mmol/L)/(mmol/L)
apoA1 % Change from baseline at Week 52 (LOCF) (eGFR G3a-G3b (≥30 and <60)): 8.0%
apoA1 Week 52 (LOCF) (eGFR G3a-G3b (≥30 and <60)): 144.0 mg/dL
non-HDL-C % Change from baseline at Week 52 (LOCF) (eGFR G3a-G3b (≥30 and <60)): −7.7%
non-HDL-C Week 52 (LOCF) (eGFR G3a-G3b (≥30 and <60)): 3.56 mmol/L
HDL-C % Change from baseline at Week 52 (LOCF) (eGFR G4-G5 (<30)): 34.1%
HDL-C Week 52 (LOCF) (eGFR G4-G5 (<30)): 1.18 mmol/L
LDL-C % Change from baseline at Week 52 (LOCF) (eGFR G4-G5 (<30)): −8.8%
LDL-C Week 52 (LOCF) (eGFR G4-G5 (<30)): 2.82 mmol/L
RemL-C % Change from baseline at Week 52 (LOCF) (eGFR G4-G5 (<30)): −57.1%
RemL-C Week 52 (LOCF) (eGFR G4-G5 (<30)): 0.24 mmol/L
TG % Change from baseline at Week 52 (LOCF) (eGFR G4-G5 (<30)): −37.7%
TG Week 52 (LOCF) (eGFR G4-G5 (<30)): 1.64 mmol/L
TG/HDL-C % Change from baseline at Week 52 (LOCF) (eGFR G4-G5 (<30)): −51.0%
TG/HDL-C Week 52 (LOCF) (eGFR G4-G5 (<30)): 1.68 (mmol/L)/(mmol/L)
apoA1 % Change from baseline at Week 52 (LOCF) (eGFR G4-G5 (<30)): 16.7%
apoA1 Week 52 (LOCF) (eGFR G4-G5 (<30)): 122.4 mg/dL
non-HDL-C % Change from baseline at Week 52 (LOCF) (eGFR G4-G5 (<30)): −17.3%
non-HDL-C Week 52 (LOCF) (eGFR G4-G5 (<30)): 3.48 mmol/L
LDL-C change (observation) (lowest eGFR group (eGFR<30 mL/min/1.73 m^2: G4-G5)): reduction
